In the kinase profiling compilation of Christmann-Franck et al. (2016):
“And” between values parts separate entries of the source, which are not always exact repeats. Identical values can stand only once.

How the values were obtained:
Assay in all cases: radiometric filter-binding kinase assay
CHEK2 (human) = CHEK2 (human) (UniProt O96017)
PDPK1 (human) = PDPK1 (human) (UniProt O15530)
HIPK3 (human) = HIPK3 (human) (UniProt Q9H422)
MINK1 (human) = MINK1 (human) (UniProt Q8N4C8)
DYRK3 (human) = DYRK3 (human) (UniProt O43781)
PTK6 (human) = PTK6 (human) (UniProt Q13882)
CAMKK2 (human) = CAMKK2 (human) (UniProt Q96RR4)
PIM3 (human) = PIM3 (human) (UniProt Q86V86)
MKNK1 (human) = MKNK1 (human) (UniProt Q9BUB5)
JAK2 JH1 JH2 (human) = JAK2 JH1 JH2 (human) (UniProt O60674)
[1] = test system: OXSR1 (human), O95747 [T185E]
EPHB4 (human) = EPHB4 (human) (UniProt P54760)
BRSK2 (human) = BRSK2 (human) (UniProt Q8IWQ3)
EIF2AK3 (human) = EIF2AK3 (human) (UniProt Q9NZJ5)
MARK2 (human) = MARK2 (human) (UniProt Q7KZI7)
PLK1 (human) = PLK1 (human) (UniProt P53350)
HIPK2 (human) = HIPK2 (human) (UniProt Q9H2X6)
RPS6KA3 KD1 KD2 (human) = RPS6KA3 KD1 KD2 (human) (UniProt P51812)
MAPK8 (human) = MAPK8 (human) (UniProt P45983)
MELK (human) = MELK (human) (UniProt Q14680)
TTK (human) = TTK (human) (UniProt P33981)
MKNK2 (human) = MKNK2 (human) (UniProt Q9HBH9)
TLK1 (human) = TLK1 (human) (UniProt Q9UKI8)
CSK (human) = CSK (human) (UniProt P41240)
MAP3K9 (human) = MAP3K9 (human) (UniProt P80192)
[2] = test system: AKT2 (human), P31751 [S474D]
MAP3K5 (human) = MAP3K5 (human) (UniProt Q99683)
DYRK1A (human) = DYRK1A (human) (UniProt Q13627)
[3] = test system: SGK1 (human), O00141 [S422D]
Chain of SGK1 (human), O00141 [S422D] (O00141 whole entry S422D, looked up): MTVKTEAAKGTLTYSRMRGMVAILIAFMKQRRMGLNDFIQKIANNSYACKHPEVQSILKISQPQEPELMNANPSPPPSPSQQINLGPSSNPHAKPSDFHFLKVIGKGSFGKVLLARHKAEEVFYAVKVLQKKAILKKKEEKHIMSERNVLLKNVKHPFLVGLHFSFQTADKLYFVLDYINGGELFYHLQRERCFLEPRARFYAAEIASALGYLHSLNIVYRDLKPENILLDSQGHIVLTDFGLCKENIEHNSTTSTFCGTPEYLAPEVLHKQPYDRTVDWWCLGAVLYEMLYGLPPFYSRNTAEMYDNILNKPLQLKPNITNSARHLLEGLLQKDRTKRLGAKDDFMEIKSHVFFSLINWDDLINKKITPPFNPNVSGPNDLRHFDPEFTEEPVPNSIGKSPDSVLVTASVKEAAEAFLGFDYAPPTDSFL

Chain of EPHB4 (human) (P54760 whole entry, looked up): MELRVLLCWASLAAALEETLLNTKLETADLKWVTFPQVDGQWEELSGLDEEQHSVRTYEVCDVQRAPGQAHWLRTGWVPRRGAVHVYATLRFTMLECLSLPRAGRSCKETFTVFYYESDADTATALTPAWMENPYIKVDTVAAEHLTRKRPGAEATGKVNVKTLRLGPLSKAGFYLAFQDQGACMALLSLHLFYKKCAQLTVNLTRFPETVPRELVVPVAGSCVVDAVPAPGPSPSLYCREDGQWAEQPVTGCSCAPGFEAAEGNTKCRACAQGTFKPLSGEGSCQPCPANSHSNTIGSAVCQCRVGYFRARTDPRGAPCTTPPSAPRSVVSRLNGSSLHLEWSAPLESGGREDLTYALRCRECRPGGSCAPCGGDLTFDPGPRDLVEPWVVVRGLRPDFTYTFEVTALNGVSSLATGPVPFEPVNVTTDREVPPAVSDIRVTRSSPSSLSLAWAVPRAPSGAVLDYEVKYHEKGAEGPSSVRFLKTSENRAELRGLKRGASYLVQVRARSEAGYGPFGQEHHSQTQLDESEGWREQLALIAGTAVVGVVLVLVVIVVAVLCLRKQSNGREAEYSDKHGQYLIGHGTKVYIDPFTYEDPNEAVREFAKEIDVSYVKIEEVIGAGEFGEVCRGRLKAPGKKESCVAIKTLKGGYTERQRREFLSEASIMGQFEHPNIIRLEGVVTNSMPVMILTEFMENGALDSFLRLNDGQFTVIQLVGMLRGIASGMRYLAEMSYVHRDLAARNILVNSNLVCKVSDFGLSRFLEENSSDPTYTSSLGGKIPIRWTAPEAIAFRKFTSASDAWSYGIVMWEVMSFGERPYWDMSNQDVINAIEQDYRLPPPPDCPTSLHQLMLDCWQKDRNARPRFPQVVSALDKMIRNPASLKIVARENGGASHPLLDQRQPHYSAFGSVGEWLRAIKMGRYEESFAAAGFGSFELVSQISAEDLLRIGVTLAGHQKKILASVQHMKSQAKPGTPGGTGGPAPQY
Chain of MAP3K9 (human) (P80192 whole entry, looked up): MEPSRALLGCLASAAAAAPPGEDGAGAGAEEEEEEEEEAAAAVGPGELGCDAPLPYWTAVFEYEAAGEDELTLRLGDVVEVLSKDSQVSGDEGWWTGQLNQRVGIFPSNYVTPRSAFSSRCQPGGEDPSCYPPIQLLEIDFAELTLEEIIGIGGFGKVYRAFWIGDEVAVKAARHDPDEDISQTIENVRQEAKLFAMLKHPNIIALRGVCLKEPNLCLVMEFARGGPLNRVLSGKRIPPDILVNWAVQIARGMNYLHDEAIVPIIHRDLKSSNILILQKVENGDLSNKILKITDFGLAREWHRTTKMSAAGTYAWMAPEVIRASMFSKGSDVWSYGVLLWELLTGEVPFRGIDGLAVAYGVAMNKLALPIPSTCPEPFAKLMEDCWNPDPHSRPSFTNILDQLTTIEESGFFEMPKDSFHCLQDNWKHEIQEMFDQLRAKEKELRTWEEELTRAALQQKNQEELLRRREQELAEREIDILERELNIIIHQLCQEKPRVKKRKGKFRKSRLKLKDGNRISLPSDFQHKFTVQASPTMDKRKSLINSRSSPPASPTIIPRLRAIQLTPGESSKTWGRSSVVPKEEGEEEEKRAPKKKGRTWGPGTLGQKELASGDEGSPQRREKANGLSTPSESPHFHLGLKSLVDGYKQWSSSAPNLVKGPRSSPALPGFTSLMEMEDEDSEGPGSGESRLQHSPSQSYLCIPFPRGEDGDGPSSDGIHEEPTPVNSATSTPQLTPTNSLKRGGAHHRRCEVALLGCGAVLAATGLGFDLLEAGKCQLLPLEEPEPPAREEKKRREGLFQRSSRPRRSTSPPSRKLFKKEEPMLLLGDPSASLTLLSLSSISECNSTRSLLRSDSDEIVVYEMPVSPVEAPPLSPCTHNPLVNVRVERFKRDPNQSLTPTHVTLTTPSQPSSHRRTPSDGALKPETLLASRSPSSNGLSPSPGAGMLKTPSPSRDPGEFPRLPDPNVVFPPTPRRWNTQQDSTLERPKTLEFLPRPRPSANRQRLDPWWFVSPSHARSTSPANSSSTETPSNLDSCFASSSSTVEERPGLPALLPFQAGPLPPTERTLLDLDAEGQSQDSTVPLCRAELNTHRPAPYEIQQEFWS
Chain of AKT2 (human), P31751 [S474D] (P31751 whole entry S474D, looked up): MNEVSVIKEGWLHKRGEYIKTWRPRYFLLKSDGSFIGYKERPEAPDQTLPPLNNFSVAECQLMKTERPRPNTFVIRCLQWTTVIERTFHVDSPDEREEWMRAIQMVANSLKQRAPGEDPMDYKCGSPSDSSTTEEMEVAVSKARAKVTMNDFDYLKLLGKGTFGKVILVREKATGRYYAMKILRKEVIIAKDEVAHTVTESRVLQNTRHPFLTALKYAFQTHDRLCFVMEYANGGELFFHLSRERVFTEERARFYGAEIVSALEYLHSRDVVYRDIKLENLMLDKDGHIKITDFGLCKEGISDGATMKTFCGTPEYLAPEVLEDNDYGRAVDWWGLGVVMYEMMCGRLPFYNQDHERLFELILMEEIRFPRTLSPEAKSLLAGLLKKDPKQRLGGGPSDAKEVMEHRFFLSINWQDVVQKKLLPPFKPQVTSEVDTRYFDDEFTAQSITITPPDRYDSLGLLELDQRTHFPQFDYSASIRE
Chain of TTK (human) (P33981 whole entry, looked up): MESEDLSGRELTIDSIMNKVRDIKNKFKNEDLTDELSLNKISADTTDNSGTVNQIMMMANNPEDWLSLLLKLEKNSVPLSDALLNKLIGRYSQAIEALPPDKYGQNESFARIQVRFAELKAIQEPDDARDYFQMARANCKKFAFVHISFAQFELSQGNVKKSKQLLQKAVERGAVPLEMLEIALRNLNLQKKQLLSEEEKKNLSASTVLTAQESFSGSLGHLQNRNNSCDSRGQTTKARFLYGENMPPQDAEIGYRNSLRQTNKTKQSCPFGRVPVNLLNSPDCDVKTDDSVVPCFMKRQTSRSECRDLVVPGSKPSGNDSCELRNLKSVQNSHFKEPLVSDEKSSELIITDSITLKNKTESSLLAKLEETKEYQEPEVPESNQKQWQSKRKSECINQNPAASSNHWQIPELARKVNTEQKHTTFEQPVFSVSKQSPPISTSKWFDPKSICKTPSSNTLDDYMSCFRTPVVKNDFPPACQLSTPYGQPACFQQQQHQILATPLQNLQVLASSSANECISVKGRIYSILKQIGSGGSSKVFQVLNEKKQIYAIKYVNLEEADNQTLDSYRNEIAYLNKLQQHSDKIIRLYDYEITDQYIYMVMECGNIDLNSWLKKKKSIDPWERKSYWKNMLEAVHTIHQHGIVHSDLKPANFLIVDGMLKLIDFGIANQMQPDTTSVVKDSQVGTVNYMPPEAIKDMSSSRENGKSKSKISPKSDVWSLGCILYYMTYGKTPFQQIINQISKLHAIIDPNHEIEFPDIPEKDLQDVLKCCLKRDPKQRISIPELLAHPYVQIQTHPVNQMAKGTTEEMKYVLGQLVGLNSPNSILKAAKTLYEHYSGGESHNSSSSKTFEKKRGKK
Chain of MARK2 (human) (Q7KZI7 whole entry, looked up): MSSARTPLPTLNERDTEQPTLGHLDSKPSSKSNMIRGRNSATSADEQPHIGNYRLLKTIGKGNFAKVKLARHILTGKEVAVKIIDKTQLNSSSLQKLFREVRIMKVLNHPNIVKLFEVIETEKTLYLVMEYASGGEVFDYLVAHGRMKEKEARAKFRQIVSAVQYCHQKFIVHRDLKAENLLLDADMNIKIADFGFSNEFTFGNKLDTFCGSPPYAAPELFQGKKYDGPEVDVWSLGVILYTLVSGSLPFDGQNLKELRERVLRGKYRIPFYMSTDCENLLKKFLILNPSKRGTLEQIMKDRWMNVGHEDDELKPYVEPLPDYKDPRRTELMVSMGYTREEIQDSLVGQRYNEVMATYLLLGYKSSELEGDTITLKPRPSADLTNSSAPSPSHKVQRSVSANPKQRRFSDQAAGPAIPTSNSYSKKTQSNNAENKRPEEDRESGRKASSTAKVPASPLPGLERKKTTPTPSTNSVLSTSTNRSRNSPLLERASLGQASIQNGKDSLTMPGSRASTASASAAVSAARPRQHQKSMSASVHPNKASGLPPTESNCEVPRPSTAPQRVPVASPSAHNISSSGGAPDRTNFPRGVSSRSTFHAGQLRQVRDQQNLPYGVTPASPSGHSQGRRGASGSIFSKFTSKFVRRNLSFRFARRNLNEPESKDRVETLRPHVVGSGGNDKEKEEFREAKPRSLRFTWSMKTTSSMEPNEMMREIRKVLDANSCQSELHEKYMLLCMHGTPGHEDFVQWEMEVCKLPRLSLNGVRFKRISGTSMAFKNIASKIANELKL
Chain of MAPK8 (human) (P45983 whole entry, looked up): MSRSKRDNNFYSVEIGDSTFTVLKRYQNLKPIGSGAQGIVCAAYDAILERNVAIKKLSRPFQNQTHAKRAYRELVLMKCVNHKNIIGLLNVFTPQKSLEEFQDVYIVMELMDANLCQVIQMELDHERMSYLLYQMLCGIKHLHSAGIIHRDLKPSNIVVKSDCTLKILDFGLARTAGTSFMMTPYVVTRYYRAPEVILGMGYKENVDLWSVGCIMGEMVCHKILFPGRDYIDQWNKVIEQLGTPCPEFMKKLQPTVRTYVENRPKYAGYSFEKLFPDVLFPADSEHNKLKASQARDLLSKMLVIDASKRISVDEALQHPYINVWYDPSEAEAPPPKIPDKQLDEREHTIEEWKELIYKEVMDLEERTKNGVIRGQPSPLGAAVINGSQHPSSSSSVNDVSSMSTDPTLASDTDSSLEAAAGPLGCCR

residual activity (CHEK2 (human); compound 0.1 µM): 117%
residual activity (CHEK2 (human); compound 1.0 µM): 103%
residual activity (CHEK2 (human); compound 10.0 µM): 67.9%
residual activity (PDPK1 (human); compound 0.1 µM): 101% and 98%
residual activity (PDPK1 (human); compound 1.0 µM): 100% and 86.1%
residual activity (HIPK3 (human); compound 0.1 µM): 110%
residual activity (HIPK3 (human); compound 1.0 µM): 70.3%
residual activity (HIPK3 (human); compound 10.0 µM): 19.8%
residual activity (MINK1 (human); compound 0.1 µM): 75.7%
residual activity (MINK1 (human); compound 1.0 µM): 11.4%
residual activity (MINK1 (human); compound 10.0 µM): 4.56%
residual activity (DYRK3 (human); compound 0.1 µM): 96.5%
residual activity (DYRK3 (human); compound 1.0 µM): 86.3%
residual activity (DYRK3 (human); compound 10.0 µM): 82%
residual activity (PTK6 (human); compound 0.1 µM): 101%
residual activity (PTK6 (human); compound 1.0 µM): 43.1%
residual activity (PTK6 (human); compound 10.0 µM): 6.76%
residual activity (CAMKK2 (human); compound 0.1 µM): 98.3%
residual activity (CAMKK2 (human); compound 1.0 µM): 70.7%
residual activity (CAMKK2 (human); compound 10.0 µM): 20.7%
residual activity (PIM3 (human); compound 0.1 µM): 107%
residual activity (PIM3 (human); compound 1.0 µM): 108%
residual activity (PIM3 (human); compound 10.0 µM): 98.9%
residual activity (MKNK1 (human); compound 0.1 µM): 98%
residual activity (MKNK1 (human); compound 1.0 µM): 104%
residual activity (MKNK1 (human); compound 10.0 µM): 82.7%
residual activity (JAK2 JH1 JH2 (human); compound 0.1 µM): 93.4%
residual activity (JAK2 JH1 JH2 (human); compound 1.0 µM): 92.4%
residual activity (JAK2 JH1 JH2 (human); compound 10.0 µM): 41.6%
residual activity ([1]; compound 0.1 µM): 54%
residual activity ([1]; compound 10.0 µM): 1.79%
residual activity (EPHB4 (human); compound 0.1 µM): 97.3%
residual activity (EPHB4 (human); compound 1.0 µM): 92.6%
residual activity (EPHB4 (human); compound 10.0 µM): 42.7%
residual activity (BRSK2 (human); compound 0.1 µM): 100%
residual activity (BRSK2 (human); compound 1.0 µM): 94.8%
residual activity (BRSK2 (human); compound 10.0 µM): 88.8%
residual activity (EIF2AK3 (human); compound 0.1 µM): 98.8%
residual activity (EIF2AK3 (human); compound 1.0 µM): 64.6%
residual activity (EIF2AK3 (human); compound 10.0 µM): 21.4%
residual activity (MARK2 (human); compound 0.1 µM): 92.7%
residual activity (MARK2 (human); compound 1.0 µM): 74.5%
residual activity (MARK2 (human); compound 10.0 µM): 85.5%
residual activity (PLK1 (human); compound 0.1 µM): 103%
residual activity (PLK1 (human); compound 1.0 µM): 91.6%
residual activity (PLK1 (human); compound 10.0 µM): 95%
residual activity (HIPK2 (human); compound 0.1 µM): 105%
residual activity (HIPK2 (human); compound 1.0 µM): 60.3%
residual activity (HIPK2 (human); compound 10.0 µM): 12.6%
residual activity (RPS6KA3 KD1 KD2 (human); compound 0.1 µM): 94.8%
residual activity (RPS6KA3 KD1 KD2 (human); compound 1.0 µM): 93.8%
residual activity (RPS6KA3 KD1 KD2 (human); compound 10.0 µM): 76.3%
residual activity (MAPK8 (human); compound 0.1 µM): 93.8%
residual activity (MAPK8 (human); compound 1.0 µM): 61.6%
residual activity (MAPK8 (human); compound 10.0 µM): 14.4%
residual activity (MELK (human); compound 0.1 µM): 115%
residual activity (MELK (human); compound 1.0 µM): 99.5%
residual activity (MELK (human); compound 10.0 µM): 64.1%
residual activity (TTK (human); compound 0.1 µM): 91.2%
residual activity (TTK (human); compound 1.0 µM): 98.1%
residual activity (TTK (human); compound 10.0 µM): 66.1%
residual activity (MKNK2 (human); compound 0.1 µM): 109%
residual activity (MKNK2 (human); compound 1.0 µM): 112%
residual activity (MKNK2 (human); compound 10.0 µM): 82.8%
residual activity (TLK1 (human); compound 0.1 µM): 107%
residual activity (TLK1 (human); compound 1.0 µM): 92.2%
residual activity (TLK1 (human); compound 10.0 µM): 92.1%
residual activity (CSK (human); compound 0.1 µM): 81.8%
residual activity (CSK (human); compound 1.0 µM): 15.4%
residual activity (CSK (human); compound 10.0 µM): 7.86%
residual activity (MAP3K9 (human); compound 0.1 µM): 106%
residual activity (MAP3K9 (human); compound 1.0 µM): 90%
residual activity (MAP3K9 (human); compound 10.0 µM): 39.6%
residual activity ([2]; compound 0.1 µM): 105%
residual activity ([2]; compound 1.0 µM): 114%
residual activity ([2]; compound 10.0 µM): 49.3%
residual activity (MAP3K5 (human); compound 0.1 µM): 111%
residual activity (MAP3K5 (human); compound 1.0 µM): 105%
residual activity (MAP3K5 (human); compound 10.0 µM): 76.5%
residual activity (DYRK1A (human); compound 0.1 µM): 107%
residual activity (DYRK1A (human); compound 1.0 µM): 97.8%
residual activity (DYRK1A (human); compound 10.0 µM): 84.9%
residual activity ([3]; compound 0.1 µM): 101%
residual activity ([3]; compound 1.0 µM): 72.8%
residual activity ([3]; compound 10.0 µM): 52.1%
Structure (SMILES): CCN1CCN(Cc2ccc(NC(=O)c3ccc(C)c(Oc4ccnc5[nH]ccc45)c3)cc2C(F)(F)F)CC1
